Measurements: patent US10688086B2, “Method for treating cancer with dihydropyridine calcium antagonist” (GERMARK BIOTECHNOLOGY CO., LTD, priority 2016, dated 2020)

Assays:
HepG2 cells [1] = assay: Cell metastasis (Transwell, Calcein AM fluorescence), HepG2; type: cell-based; conditions: 10 μM, 48 or 72 hrs
Protocol: The HepG2 and Hep3B cells were separately cultured in an insert of the Transwell plate, then added with 10 μM Amlodipine and cultured for 48 or 72 hrs. The insert was placed in a serum-free DMEM medium containing […] Calcien AM. Fluorescent staining was carried out in a culture environment at 37° C. After about 45-60 min, the cells were scraped off with 0.05% Trypsin-EDTA, and the fluorescence intensity at a wavelength of 490 to 520 nm was measured.

HepG2 cells [2] = assay: Cell invasion (Transwell, crystal violet), HepG2; type: cell-based; conditions: 10 μM, 72 hrs
Protocol: The HepG2 and Hep3B cells were separately cultured in the insert of the Transwell plate, then added with 10 μM Amlodipine and cultured for 48 or 72 hrs. The cells on the inner surface of the insert were taken out, and the insert was placed in methanol and stained with a crystal violet solution. […] That is, Amlodipine is effective in slowing the progression of cancers, thereby achieving a therapeutic effect in the treatment of cancers.

[3] = system: patients having pancreatic cancer; assay: NHIRD statistical analysis of death/survival with vs without Amlodipine, pancreatic cancer; type: in vivo, human
HepG2 cells [4] = assay: Cell viability (WST-1 72 hrs; PI flow cytometry 48 hrs), HepG2; type: cell-based
Protocol: Two liver cancer cell lines HepG2 and Hep3B were cultured. The medium used for the culture of the cells was DMEM medium containing 10% fetal bovine serum, 10,000 U/ml penicillin and 10,000 μg/ml streptomycin. The culture occurred in an environment at 37° C. with 5% CO2, and the medium was changed every 2-3 days during the culture. After the cells were cultured to about 70% confluence, they were treated with various concentrations of Amlodipine: 0, 1.5625, 3.125, 6.25, 12.5, 25, and 50 μM for various times: 48, and 72 hrs. After the experiment, the viability of each liver cancer cell line was observed and the cell viability and cell cycle were analyzed. The HepG2 and Hep3B cells treated with various concentrations of Amlodipine for 72 hrs were added to WST-1 reagent. After 330 minutes of reaction, the absorbance at a wavelength of 420-480 nm was measured. The HepG2 and Hep3B cells treated with various concentrations of Amlodipine for 48 hrs were scraped off with 0.05% Trypsin-EDTA, and then added to 2 mg/ml PI solution. The cell viability was analyzed by flow cytometry.

[5] = system: patients having lung cancer; assay: NHIRD statistical analysis of death/survival with vs without Amlodipine, lung cancer; type: in vivo, human
[6] = system: patients with gastric cancer; assay: NHIRD statistical analysis of death/survival with vs without Amlodipine, gastric cancer; type: in vivo, human
Protocol: In this example, statistical analysis was performed on the statistics of the effects of Amlodipine in the treatment of cancers, using data from the National Health Insurance Research Database (NHIRD) covering detailed healthcare data for the population in Taiwan. Then, the diagnostic data at the time of admission in the database and the database of patients with registered major injuries were used, and statistical analysis was performed using data from patients with gastric cancer.
The dose of Amlodipine used in Example 1 was at least 120 mg/30 days. Therefore, in order to obtain the minimum effective dose, the survival rate of patients treated with Amlodipine for days in 90 days after cancer diagnosis was further statistically analyzed.

liver cancer cells HepG2 = assay: Cell cycle analysis by flow cytometry, HepG2; type: cell-based
Protocol: Two liver cancer cell lines HepG2 and Hep3B were cultured. The medium used for the culture of the cells was DMEM medium containing 10% fetal bovine serum, 10,000 U/ml penicillin and 10,000 μg/ml streptomycin. The culture occurred in an environment at 37° C. with 5% CO2, and the medium was changed every 2-3 days during the culture. After the cells were cultured to about 70% confluence, they were treated with various concentrations of Amlodipine: 0, 1.5625, 3.125, 6.25, 12.5, 25, and 50 μM for various times: 48, and 72 hrs. After the experiment, the viability of each liver cancer cell line was observed and the cell viability and cell cycle were analyzed. The cell cycle of each liver cancer cell line treated under different conditions was analyzed by flow cytometry. […] Still further, each liver cancer cell line was treated with Amlodipine at a concentration of 12.5 μM for 0, 12, 24, 36 and 48 hrs, and the cell cycle was analyzed by flow cytometry.

[7] = 24/30: Amlodipine at least 24 days within 30 days after cancer diagnosis
[8] = 48/60: Amlodipine at least 48 days within 60 days after cancer diagnosis
[9] = 72/90: Amlodipine at least 72 days within 90 days after cancer diagnosis
[10] = Amlodipine for 20 days within 90 days after diagnosis
[11] = 12.5 μM Amlodipine, treatment time 12 hr
[12] = 12.5 μM Amlodipine, treatment time 24 hr
[13] = 12.5 μM Amlodipine, treatment time 36 hr
[14] = 12.5 μM Amlodipine, treatment time 48 hr

In the case of `CCOC(=O)C1=C(COCCN)NC(C)=C(C(=O)OC)C1c1ccccc1Cl` (centres unmarked) [Amlodipine], the “fluorescence intensity (cell metastasis) vs cells not treated with Amlodipine” value (HepG2 cells [1]) is reported as “lower”, the “cell invasion (crystal violet staining)” value (HepG2 cells [2]) is reported as “lower” and the “Crude HR HRs (95% C.I.)” value [3, 7] is reported as 0.62 (0.51-0.75). For the same compound, the “Crude HR HRs (95% C.I.)” value [3, 8] was 0.63 (0.51-0.77), the “Crude HR HRs (95% C.I.)” value [3, 9] was 0.71 (0.57-0.88) and the “Crude HR HRs (95% C.I.)” value [3, 10] was 0.77 (0.65-0.93). The “Amlodipine concentration at which the best inhibitory effect on the growth of liver cancer cells is achieved” value (HepG2 cells [4]) was “greater than or equal to 12.5 μM”, the “cell viability of liver cancer cells treated with Amlodipine” value (HepG2 cells [4]; 1.5625-50 μM, 48 and 72 hrs, FIGS. 9, 11, 12) was “decreased” and the “Crude HR HRs (95% C.I.)” value [5, 7] was 0.66 (0.62-0.70). For the same compound, the “Crude HR HRs (95% C.I.)” value [5, 8] was 0.62 (0.58-0.67), the “Crude HR HRs (95% C.I.)” value [5, 10] was 0.85 (0.80-0.90) and the “Crude HR HRs (95% C.I.)” value ([5]; day of treatment with Amlodipine 72/9) was 0.62 (0.58-0.66). For the same compound, the “Crude HR HRs (95% C.I.)” value [6, 7] was 0.43 (0.39-0.47), the “Crude HR HRs (95% C.I.)” value [6, 8] was 0.43 (0.39-0.48) and the “Crude HR HRs (95% C.I.)” value [6, 9] was 0.42 (0.38-0.47). For the same compound, the “Crude HR HRs (95% C.I.)” value [6, 10] was 0.73 (0.66-0.80), the “Proportion of cell distribution in cell cycle (%) M1:” value (shortened to “Proportion … (%) M1:”) (liver cancer cells HepG2; 1.5625 μM Amlodipine, 48 hrs) was 1.58% and the “Proportion of cell distribution in cell cycle (%) M2:” value (“Proportion … (%) M2:” below) (liver cancer cells HepG2; 1.5625 μM Amlodipine, 48 hrs) was 70.28%. For the same compound, the “Proportion of cell distribution in cell cycle (%) M3:” value (from here on “Proportion … (%) M3:”) (liver cancer cells HepG2; 1.5625 μM Amlodipine, 48 hrs) was 8.89%, the “Proportion of cell distribution in cell cycle (%) M4:” value (shortened to “Proportion … (%) M4:”) (liver cancer cells HepG2; 1.5625 μM Amlodipine, 48 hrs) was 19.34% and the “Proportion … (%) M1:” value (liver cancer cells HepG2; 3.125 μM Amlodipine, 48 hrs) was 1.36%. The “Proportion … (%) M2:” value (liver cancer cells HepG2; 3.125 μM Amlodipine, 48 hrs) was 69.60%, the “Proportion … (%) M3:” value (liver cancer cells HepG2; 3.125 μM Amlodipine, 48 hrs) was 8.91% and the “Proportion … (%) M4:” value (liver cancer cells HepG2; 3.125 μM Amlodipine, 48 hrs) was 20.23%. The “Proportion … (%) M1:” value (liver cancer cells HepG2; 6.25 μM Amlodipine, 48 hrs) was 1.91%, the “Proportion … (%) M2:” value (liver cancer cells HepG2; 6.25 μM Amlodipine, 48 hrs) was 66.92% and the “Proportion … (%) M3:” value (liver cancer cells HepG2; 6.25 μM Amlodipine, 48 hrs) was 10.28%. For the same compound, the “Proportion … (%) M4:” value (liver cancer cells HepG2; 6.25 μM Amlodipine, 48 hrs) was 21.01%, the “Proportion … (%) M1:” value (liver cancer cells HepG2; 12.5 μM Amlodipine, 48 hrs) was 81.27% and the “Proportion … (%) M2:” value (liver cancer cells HepG2; 12.5 μM Amlodipine, 48 hrs) was 12.49%. For the same compound, the “Proportion … (%) M3:” value (liver cancer cells HepG2; 12.5 μM Amlodipine, 48 hrs) was 3.31%, the “Proportion … (%) M4:” value (liver cancer cells HepG2; 12.5 μM Amlodipine, 48 hrs) was 2.95% and the “Proportion … (%) M1:” value (liver cancer cells HepG2; [11]) was 5.01%. For the same compound, the “Proportion … (%) M2:” value (liver cancer cells HepG2; [11]) was 76.16%, the “Proportion … (%) M3:” value (liver cancer cells HepG2; [11]) was 6.10% and the “Proportion … (%) M4:” value (liver cancer cells HepG2; [11]) was 12.87%. The “Proportion … (%) M1:” value (liver cancer cells HepG2; [12]) was 16.20%, the “Proportion … (%) M2:” value (liver cancer cells HepG2; [12]) was 65.01% and the “Proportion … (%) M3:” value (liver cancer cells HepG2; [12]) was 6.24%. The “Proportion … (%) M4:” value (liver cancer cells HepG2; [12]) was 12.69%, the “Proportion … (%) M1:” value (liver cancer cells HepG2; [13]) was 65.46% and the “Proportion … (%) M2:” value (liver cancer cells HepG2; [13]) was 22.64%. For the same compound, the “Proportion … (%) M3:” value (liver cancer cells HepG2; [13]) was 4.81%, the “Proportion … (%) M4:” value (liver cancer cells HepG2; [13]) was 7.22% and the “Proportion … (%) M1:” value (liver cancer cells HepG2; [14]) was 83.26%. For the same compound, the “Proportion … (%) M2:” value (liver cancer cells HepG2; [14]) was 11.13%, the “Proportion … (%) M3:” value (liver cancer cells HepG2; [14]) was 1.73% and the “Proportion … (%) M4:” value (liver cancer cells HepG2; [14]) was 3.93%. The “cell division (cell cycle, in words)” value (liver cancer cells HepG2; 12.5 μM or more, 48 hrs) was “most cells were unable to undergo cell division”, the “Proportion … (%) M1:” value (liver cancer cells HepG2; 25 μM Amlodipine, 48 hrs) was 99.75% and the “Proportion … (%) M2:” value (liver cancer cells HepG2; 25 μM Amlodipine, 48 hrs) was 0.22%. For the same compound, the “Proportion … (%) M3:” value (liver cancer cells HepG2; 25 μM Amlodipine, 48 hrs) was 0.00% and the “Proportion … (%) M4:” value (liver cancer cells HepG2; 25 μM Amlodipine, 48 hrs) was 0.94%.
